Common to all, as to experiment: UV-Vis absorption titration (Kb) and fluorescence quenching (KSV […] ^-1)
What all share (type): binding

For assay [1], the target named is T1, human serum albumin (HSA) (Homo sapiens, UniProt P02768).
T1 construct: gene ALB
Particulars: read-out: UV-Vis absorption titration (Kb) and fluorescence quenching (KSV 4.6 × 10^6 M^-1) (converted).

In assay [2] the target is T1, human serum albumin (HSA). Particulars: read-out: UV-Vis absorption titration (Kb) and fluorescence quenching (KSV 5.6 × 10^6 M^-1) (converted).
Assay [3] deals with T1, human serum albumin (HSA). Conditions: read-out: UV-Vis absorption titration (Kb) and fluorescence quenching (KSV 4 × 10^6 M^-1) (converted).

This is an account of results in article PMC10458470 (Molecules, 2023).

Like-named read-outs stand apart in the source and are kept apart here.

T1 sequence (P02768 25-609): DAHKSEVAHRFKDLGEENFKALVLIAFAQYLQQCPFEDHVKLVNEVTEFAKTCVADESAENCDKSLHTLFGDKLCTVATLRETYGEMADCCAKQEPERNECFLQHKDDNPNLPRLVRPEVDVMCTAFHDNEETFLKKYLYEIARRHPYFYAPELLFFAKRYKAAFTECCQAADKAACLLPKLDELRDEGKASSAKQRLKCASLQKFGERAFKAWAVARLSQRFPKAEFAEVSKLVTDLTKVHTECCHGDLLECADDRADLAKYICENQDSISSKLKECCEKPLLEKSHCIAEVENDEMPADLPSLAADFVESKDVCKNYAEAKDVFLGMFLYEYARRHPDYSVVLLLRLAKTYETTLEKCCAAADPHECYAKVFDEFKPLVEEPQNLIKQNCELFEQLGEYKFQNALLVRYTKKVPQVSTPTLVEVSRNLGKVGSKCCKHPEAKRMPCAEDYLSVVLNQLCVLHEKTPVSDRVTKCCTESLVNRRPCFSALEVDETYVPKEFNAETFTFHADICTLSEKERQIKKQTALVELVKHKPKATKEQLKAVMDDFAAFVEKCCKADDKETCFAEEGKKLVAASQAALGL

As to [Ni(NTZ)2Cl2] [NTZ-Ni(II)], the Kd in assay [1] is 20.9 µM.

Turning to [Cu(NTZ)2Cl2] [NTZ-Cu(II)], in assay [2], the Kd is 5.35 µM.

Regarding [Zn(NTZ)2Cl2] [NTZ-Zn(II)], the Kd in assay [3] was 13.4 µM.
